PubChem BioAssay AID1259407 (Chemical Carcinogenesis Research Information System (CCRIS), 2018)
The source made the active and inactive calls. The rule behind the calls is not given here.

Test system: CCRIS mutagenicity, Ames/micronucleus/aberration tests
Assay: CCRIS mutagenicity studies
[1] = Test System: AMES SALMONELLA TYPHIMURIUM, Strain/Indicator: TA98, Metabolic Activation: NONE, Method: STANDARD PLATE
[2] = Test System: AMES SALMONELLA TYPHIMURIUM, Strain/Indicator: TA98, Metabolic Activation: RAT, LIVER, S-9, AROCLOR 1254, Method: STANDARD PLATE
[3] = Test System: AMES SALMONELLA TYPHIMURIUM, Strain/Indicator: TA100, Metabolic Activation: NONE, Method: STANDARD PLATE
[4] = Test System: AMES SALMONELLA TYPHIMURIUM, Strain/Indicator: TA100, Metabolic Activation: RAT, LIVER, S-9, AROCLOR 1254, Method: STANDARD PLATE
[5] = Test System: AMES SALMONELLA TYPHIMURIUM, Strain/Indicator: TA100, Metabolic Activation: S-9, Method: STANDARD PLATE
[6] = Test System: AMES SALMONELLA TYPHIMURIUM, Strain/Indicator: TA98, Metabolic Activation: NONE, Method: PREINCUBATION
[7] = Test System: AMES SALMONELLA TYPHIMURIUM, Strain/Indicator: TA100, Metabolic Activation: NONE, Method: PREINCUBATION
[8] = Test System: AMES SALMONELLA TYPHIMURIUM, Strain/Indicator: TA1535, Metabolic Activation: NONE, Method: STANDARD PLATE
[9] = Test System: AMES SALMONELLA TYPHIMURIUM, Strain/Indicator: TA1535, Metabolic Activation: RAT, LIVER, S-9, AROCLOR 1254, Method: STANDARD PLATE
[10] = Test System: AMES SALMONELLA TYPHIMURIUM, Strain/Indicator: TA1537, Metabolic Activation: NONE, Method: STANDARD PLATE
[11] = Test System: AMES SALMONELLA TYPHIMURIUM, Strain/Indicator: TA1537, Metabolic Activation: RAT, LIVER, S-9, AROCLOR 1254, Method: STANDARD PLATE

**Q.** Which mutagenic call (Test System: AMES SALMONELLA TYPHIMURIUM, Strain/Indicator: TA97, Metabolic Activation: NONE, Method: STANDARD PLATE) does the source give for `Cc1nc2c(c3[nH]c4ccccc4c13)C(=O)C(N1CC1)=CC2=O` here?
**A.** active; positive

**Q.** What about the mutagenic call (Test System: AMES SALMONELLA TYPHIMURIUM, Strain/Indicator: TA97, Metabolic Activation: RAT, LIVER, S-9, AROCLOR 1254, Method: STANDARD PLATE) of the same molecule?
**A.** active; positive

**Q.** What about the mutagenic call [1] of the same molecule?
**A.** active; positive

**Q.** And the mutagenic call [2]?
**A.** active; positive

**Q.** What about the mutagenic call [3] of the same molecule?
**A.** active; positive

**Q.** What about the mutagenic call [4] of the same molecule?
**A.** active; positive

**Q.** What about the mutagenic call (Test System: AMES SALMONELLA TYPHIMURIUM, Strain/Indicator: TA102, Metabolic Activation: NONE, Method: STANDARD PLATE) of the same molecule?
**A.** active; positive

**Q.** What about the mutagenic call (Test System: AMES SALMONELLA TYPHIMURIUM, Strain/Indicator: TA102, Metabolic Activation: RAT, LIVER, S-9, AROCLOR 1254, Method: STANDARD PLATE) of the same molecule?
**A.** active; positive

**Q.** For `COc1c(O)c(OC)c(Cl)c(Cl)c1Cl`, which mutagenic call (Test System: CHINESE HAMSTER V-79, Strain/Indicator: V-79/6-THIOGUANINE, Metabolic Activation: NONE, Method: STANDARD PLATE) is on record?
**A.** inactive; negative

**Q.** With `Nc1ccc(/C=C/c2cccc(N)c2)cc1` as the molecule, how does the mutagenic call (Test System: AMES SALMONELLA TYPHIMURIUM, Strain/Indicator: TA98(1,8-DNP6), Metabolic Activation: NONE, Method: STANDARD PLATE) read?
**A.** inactive; negative

**Q.** What about the mutagenic call (Test System: AMES SALMONELLA TYPHIMURIUM, Strain/Indicator: TA98(1,8-DNP6), Metabolic Activation: S-9, Method: STANDARD PLATE) of the same molecule?
**A.** active; positive

**Q.** What about the mutagenic call [1] of the same molecule?
**A.** active; positive

**Q.** And the mutagenic call (Test System: AMES SALMONELLA TYPHIMURIUM, Strain/Indicator: TA98, Metabolic Activation: S-9, Method: STANDARD PLATE)?
**A.** active; positive

**Q.** What about the mutagenic call [3] of the same molecule?
**A.** inactive; negative

**Q.** And the mutagenic call [5]?
**A.** active; positive

**Q.** Which results are given for `Nc1cc(S(=O)(=O)O)ccc1O`?
**A.** mutagenic call (Test System: AMES SALMONELLA TYPHIMURIUM, Strain/Indicator: TA97, Metabolic Activation: HAMSTER, LIVER, S-9, AROCLOR 1254 (10 OR 30%), Method: PREINCUBATION): inactive; negative; mutagenic call (Test System: AMES SALMONELLA TYPHIMURIUM, Strain/Indicator: TA97, Metabolic Activation: NONE, Method: PREINCUBATION): inactive; negative; mutagenic call (Test System: AMES SALMONELLA TYPHIMURIUM, Strain/Indicator: TA97, Metabolic Activation: RAT, LIVER, S-9, AROCLOR 1254 (10 OR 30%), Method: PREINCUBATION): inactive; negative; mutagenic call (Test System: AMES SALMONELLA TYPHIMURIUM, Strain/Indicator: TA98, Metabolic Activation: HAMSTER, LIVER, S-9, AROCLOR 1254 (10 OR 30%), Method: PREINCUBATION): inactive; negative; mutagenic call [6]: inactive; negative; mutagenic call (Test System: AMES SALMONELLA TYPHIMURIUM, Strain/Indicator: TA98, Metabolic Activation: RAT, LIVER, S-9, AROCLOR 1254 (10 OR 30%), Method: PREINCUBATION): inactive; negative; mutagenic call (Test System: AMES SALMONELLA TYPHIMURIUM, Strain/Indicator: TA100, Metabolic Activation: HAMSTER, LIVER, S-9, AROCLOR 1254 (10 OR 30%), Method: PREINCUBATION): inactive; negative; mutagenic call [7]: inactive; negative; mutagenic call (Test System: AMES SALMONELLA TYPHIMURIUM, Strain/Indicator: TA100, Metabolic Activation: RAT, LIVER, S-9 AROCLOR 1254 (10 OR 30%), Method: PREINCUBATION): inactive; negative; mutagenic call (Test System: AMES SALMONELLA TYPHIMURIUM, Strain/Indicator: TA1535, Metabolic Activation: HAMSTER, LIVER, S-9, AROCLOR 1254 (10 OR 30%), Method: PREINCUBATION): inactive; negative; mutagenic call (Test System: AMES SALMONELLA TYPHIMURIUM, Strain/Indicator: TA1535, Metabolic Activation: NONE, Method: PREINCUBATION): inactive; negative; mutagenic call (Test System: AMES SALMONELLA TYPHIMURIUM, Strain/Indicator: TA1535, Metabolic Activation: RAT, LIVER, S-9, AROCLOR 1254 (10 OR 30%), Method: PREINCUBATION): inactive; negative

**Q.** For `O=[N+]([O-])c1cc(-c2cccc([N+](=O)[O-])c2O)ccc1O`, which mutagenic call [6] is on record?
**A.** inactive; negative

**Q.** With `CN1CCN=C(c2ccccc2)c2cc(Cl)ccc21` as the molecule, how does the mutagenic call [1] read?
**A.** inactive; negative

**Q.** And the mutagenic call [2]?
**A.** inactive; negative

**Q.** What about the mutagenic call [3] of the same molecule?
**A.** inactive; negative

**Q.** What about the mutagenic call [4] of the same molecule?
**A.** inactive; negative

**Q.** What about the mutagenic call [8] of the same molecule?
**A.** inactive; negative

**Q.** What about the mutagenic call [9] of the same molecule?
**A.** inactive; negative

**Q.** And the mutagenic call [10]?
**A.** inactive; negative

**Q.** What about the mutagenic call [11] of the same molecule?
**A.** inactive; negative

**Q.** Which mutagenic call [3] does the source give for `CC(C)CC(=O)Nc1snc2ccccc12` here?
**A.** inactive; negative

**Q.** And the mutagenic call [5]?
**A.** inactive; negative

**Q.** And the mutagenic call [10]?
**A.** inactive; negative

**Q.** And the mutagenic call (Test System: AMES SALMONELLA TYPHIMURIUM, Strain/Indicator: TA1537, Metabolic Activation: S-9, Method: STANDARD PLATE)?
**A.** inactive; negative

**Q.** Which mutagenic call (Test System: AMES SALMONELLA TYPHIMURIUM, Strain/Indicator: TA98, Metabolic Activation: HAMSTER, LIVER, S-9, AROCLOR 1254 (10%), Method: PREINCUBATION) does the source give for `O=C(Nc1ccccc1)c1cc2ccccc2c(N=Nc2cc(Cl)ccc2Cl)c1O` here?
**A.** inactive; negative

**Q.** And the mutagenic call (Test System: AMES SALMONELLA TYPHIMURIUM, Strain/Indicator: TA98, Metabolic Activation: HAMSTER, LIVER, S-9, AROCLOR 1254 (30%), Method: PREINCUBATION)?
**A.** active; positive

**Q.** And the mutagenic call [6]?
**A.** inactive; negative

**Q.** And the mutagenic call (Test System: AMES SALMONELLA TYPHIMURIUM, Strain/Indicator: TA98, Metabolic Activation: RAT, LIVER, S-9, AROCLOR 1254 (30%), Method: PREINCUBATION)?
**A.** inactive; negative

**Q.** What about the mutagenic call (Test System: AMES SALMONELLA TYPHIMURIUM, Strain/Indicator: TA100, Metabolic Activation: HAMSTER, LIVER, S-9, AROCLOR 1254 (30%), Method: PREINCUBATION) of the same molecule?
**A.** inactive; negative

**Q.** And the mutagenic call [7]?
**A.** inactive; negative

**Q.** What about the mutagenic call (Test System: AMES SALMONELLA TYPHIMURIUM, Strain/Indicator: TA100, Metabolic Activation: RAT, LIVER, S-9, AROCLOR 1254 (30%), Method: PREINCUBATION) of the same molecule?
**A.** inactive; negative

**Q.** And the mutagenic call (Test System: AMES SALMONELLA TYPHIMURIUM, Strain/Indicator: TA1538, Metabolic Activation: HAMSTER, LIVER, S-9, AROCLOR 1254 (30%), Method: PREINCUBATION)?
**A.** active; positive

**Q.** With `O=C(C(=O)c1ccccc1)c1ccccc1` as the molecule, how does the mutagenic call (Test System: AMES SALMONELLA TYPHIMURIUM, Strain/Indicator: TA98, Metabolic Activation: HAMSTER, LIVER, S-9, AROCLOR 1254, Method: STANDARD PLATE) read?
**A.** inactive; negative

**Q.** And the mutagenic call [1]?
**A.** inactive; negative

**Q.** And the mutagenic call [2]?
**A.** inactive; negative

**Q.** And the mutagenic call (Test System: AMES SALMONELLA TYPHIMURIUM, Strain/Indicator: TA100, Metabolic Activation: HAMSTER, LIVER, S-9, AROCLOR 1254, Method: STANDARD PLATE)?
**A.** inactive; negative

**Q.** What about the mutagenic call [3] of the same molecule?
**A.** inactive; negative

**Q.** What about the mutagenic call [4] of the same molecule?
**A.** inactive; negative

**Q.** And the mutagenic call (Test System: AMES SALMONELLA TYPHIMURIUM, Strain/Indicator: TA1535, Metabolic Activation: HAMSTER, LIVER, S-9, AROCLOR 1254, Method: STANDARD PLATE)?
**A.** inactive; negative

**Q.** And the mutagenic call [8]?
**A.** inactive; negative

**Q.** What about the mutagenic call [9] of the same molecule?
**A.** inactive; negative

**Q.** What about the mutagenic call (Test System: AMES SALMONELLA TYPHIMURIUM, Strain/Indicator: TA1537, Metabolic Activation: HAMSTER, LIVER, S-9, AROCLOR 1254, Method: STANDARD PLATE) of the same molecule?
**A.** inactive; negative

**Q.** What about the mutagenic call [10] of the same molecule?
**A.** inactive; negative

**Q.** And the mutagenic call [11]?
**A.** inactive; negative

**Q.** And the mutagenic call (Test System: AMES SALMONELLA TYPHIMURIUM, Strain/Indicator: TA1538, Metabolic Activation: HAMSTER, LIVER, S-9, AROCLOR 1254, Method: STANDARD PLATE)?
**A.** inactive; negative

**Q.** What about the mutagenic call (Test System: AMES SALMONELLA TYPHIMURIUM, Strain/Indicator: TA1538, Metabolic Activation: NONE, Method: STANDARD PLATE) of the same molecule?
**A.** inactive; negative

**Q.** And the mutagenic call (Test System: AMES SALMONELLA TYPHIMURIUM, Strain/Indicator: TA1538, Metabolic Activation: RAT, LIVER, S-9, AROCLOR 1254, Method: STANDARD PLATE)?
**A.** inactive; negative

**Q.** What about the mutagenic call (Test System: Mouse lymphoma, Strain/Indicator: L5178Y (tk+/tk-), Metabolic Activation: None, Method: Suspension/plate) of the same molecule?
**A.** inactive; inconclusive (previous evaluation negative)

**Q.** And the mutagenic call (Test System: Mouse lymphoma, Strain/Indicator: L5178Y (tk+/tk-), Metabolic Activation: Rat, Liver, S-9, Aroclor 1254, Method: Suspension/plate)?
**A.** inactive; negative

**Q.** How did the mutagenic call [2] turn out when `Cc1ccc2c(c1)C(C)c1cc(C)ccc1-2` was run?
**A.** inactive; negative

**Q.** What about the mutagenic call [4] of the same molecule?
**A.** inactive; negative
